ChEMBL document CHEMBL2177061, “Factors influencing the specificity of inhibitor binding to the human and malaria parasite dihydroorotate dehydrogenases” (J Med Chem, 2012)
Where a chain is given by its changes, count along the chain named.

Key:
[1] = test system: T1, Dihydroorotate dehydrogenase (quinone), mitochondrial (Plasmodium falciparum (isolate 3D7)), Q08210 [F188Y]; experiment: Inhibition of Plasmodium falciparum […] dehydrogenase F188Y mutant expressed in Escherichia coli BL21(DE3) using […] as substrate at 100 uM by DCIP-based colorimetric analysis
T1 sequence (whole entry): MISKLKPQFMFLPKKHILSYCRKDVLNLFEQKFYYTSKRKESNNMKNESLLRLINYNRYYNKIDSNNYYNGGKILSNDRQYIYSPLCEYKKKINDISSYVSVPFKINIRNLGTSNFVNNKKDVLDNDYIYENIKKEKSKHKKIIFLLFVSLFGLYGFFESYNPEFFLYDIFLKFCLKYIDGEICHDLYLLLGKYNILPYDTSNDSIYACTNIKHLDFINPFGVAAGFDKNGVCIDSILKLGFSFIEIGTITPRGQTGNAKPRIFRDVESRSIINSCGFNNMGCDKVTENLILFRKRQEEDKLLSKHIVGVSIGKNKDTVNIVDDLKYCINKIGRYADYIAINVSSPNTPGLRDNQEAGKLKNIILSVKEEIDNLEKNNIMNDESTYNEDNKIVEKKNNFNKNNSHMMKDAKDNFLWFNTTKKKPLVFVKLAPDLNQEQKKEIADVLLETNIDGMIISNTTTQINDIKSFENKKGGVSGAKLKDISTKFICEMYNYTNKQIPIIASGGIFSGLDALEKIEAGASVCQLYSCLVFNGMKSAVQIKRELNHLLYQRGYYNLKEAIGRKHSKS

[2] = test system: T2, Dihydroorotate dehydrogenase (quinone), mitochondrial (Plasmodium falciparum (isolate 3D7)), Q08210 [C276F]; experiment: Inhibition of Plasmodium falciparum […] dehydrogenase C276F mutant expressed in Escherichia coli BL21(DE3) using […] as substrate at 100 uM by DCIP-based colorimetric analysis
T2 sequence (whole entry): T1 sequence (whole entry) with Y188F, C276F

[3] = test system: T3, Dihydroorotate dehydrogenase (quinone), mitochondrial (Plasmodium falciparum (isolate 3D7)), Q08210 [C276A]; experiment: Inhibition of Plasmodium falciparum […] dehydrogenase C276A mutant expressed in Escherichia coli BL21(DE3) using […] as substrate at 100 uM by DCIP-based colorimetric analysis
T3 sequence (whole entry): T1 sequence (whole entry) with Y188F, C276A

Homo sapiens [4] = species: Homo sapiens; experiment: Ratio of IC50 for human dihydrofolate dehydrogenase Y147F mutant to IC50 for human wild type dihydrofolate dehydrogenase
Homo sapiens [5] = species: Homo sapiens; experiment: Ratio of IC50 for human dihydrofolate dehydrogenase Y147C mutant to IC50 for human wild type dihydrofolate dehydrogenase
Homo sapiens [6] = species: Homo sapiens; experiment: Ratio of IC50 for human […] dehydrogenase H56A mutant to IC50 for human wild type […] dehydrogenase
Homo sapiens [7] = species: Homo sapiens; experiment: Ratio of IC50 for human dihydrofolate dehydrogenase Y147A mutant to IC50 for human wild type dihydrofolate dehydrogenase
[8] = molecular target: Dihydroorotate dehydrogenase (quinone), mitochondrial (Homo sapiens, UniProt Q02127); experiment: Inhibition of human […] dehydrogenase expressed in Escherichia coli BL21(DE3) using […] as substrate by DCIP-based colorimetric analysis
Chain of Dihydroorotate dehydrogenase (quinone), mitochondrial (Q02127 whole entry): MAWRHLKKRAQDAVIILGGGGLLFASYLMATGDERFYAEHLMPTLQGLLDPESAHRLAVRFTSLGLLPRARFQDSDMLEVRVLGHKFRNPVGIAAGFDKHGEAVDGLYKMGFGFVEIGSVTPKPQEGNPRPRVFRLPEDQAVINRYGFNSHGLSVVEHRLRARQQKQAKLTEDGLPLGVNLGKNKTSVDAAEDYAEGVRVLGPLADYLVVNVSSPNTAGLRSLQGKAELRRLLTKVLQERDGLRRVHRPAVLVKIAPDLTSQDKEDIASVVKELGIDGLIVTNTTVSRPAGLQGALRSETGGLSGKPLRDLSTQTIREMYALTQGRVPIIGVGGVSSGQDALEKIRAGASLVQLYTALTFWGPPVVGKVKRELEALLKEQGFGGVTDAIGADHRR

[9] = molecular target: T4, Dihydroorotate dehydrogenase (Plasmodium falciparum, UniProt Q54A96); experiment: Inhibition of Plasmodium falciparum […] dehydrogenase expressed in Escherichia coli BL21(DE3) using […] as substrate by DCIP-based colorimetric analysis
T4 sequence (Q54A96 whole entry): T1 sequence (whole entry) with Y188F

SMILES: CCc1cc(O)n2nc(SCc3cc(Cl)ccc3Cl)nc2n1
- inhibition [1]: < 50%
- inhibition [2]: < 50%
- inhibition [3]: < 50%
- Ratio IC50 (Homo sapiens [4]): 1.9
- Ratio IC50 (Homo sapiens [5]): 9
- Ratio IC50 (Homo sapiens [6]): 17
- Ratio IC50 (Homo sapiens [7]): 16
- IC50 [8]: 0.013 µM
- IC50 [9]: > 100 µM
